How the values were obtained:
SK-OV-3 cells [1] = assay: Plasma membrane permeability (DNA-histone complexes in culture medium); assay type: cell-based, human; settings: SK-OV-3, 24 h, with 5 µM cyclosporin A added 30 min before
Description: Fragmentation of genomic DNA was determined by means of the Cell Death Detection ELISAPLUS kit (Roche, Basel, Switzerland). This method rests on the immunoenzymatic detection of DNA–histone complexes in the cytoplasmic cell fraction or cell culture supernatants. Cells were plated and cultured in 96-well plates (Greiner Bio-One) at the initial density of 5 × 10^3 cells per well in 100 µL of culture medium. Cells were allowed to attach and grow for 1 day prior to the addition of test reagents. Then, the media were replaced with the working solutions (3 µM, 10 µM, 30 µM), and cells were exposed to compounds 2–6 for 24 h. In some cases, 5 µM cyclosporin A (CsA, an inhibitor of the mitochondrial permeability transition) was added to the cells 30 min before treatment with the betulin derivative. Subsequently, cells were incubated concomitantly with both compounds. […] In one experiment, the presence of mono- and oligonucleosomes was determined in 20 µL samples of centrifuged culture supernatants (media) to detect the permeability of plasma membrane (considered as an indicator of cell necrosis). […] Absorbance was measured at 405 nm and 490 nm (reference wavelength), and the enrichment factor of the cytoplasmic (or supernatant) fraction in mono- and oligonucleosomes was calculated according to the formula: EF = absorbance of sample cells/absorbance of control cells.

SK-OV-3 cells [2] = assay: LDH release assay, SK-OV-3; assay type: cell-based, human; settings: SK-OV-3, 24 h, 10 μM and 30 μM
Description: In order to evaluate the cytotoxic effect, the release of LDH into the culture medium using the In Vitro Toxicology Assay Kit, Lactic Dehydrogenase Based (TOX7; Sigma Aldrich) was assessed. SK-OV-3 and OVCAR-3 cells were plated and cultured in 96-well plates (Greiner Bio-One) at the initial density of 5 × 10^3 cells per well in 100 µL of culture medium. The density of the cells was determined in the same manner as in the SRB assay. After 24 h, the media were replaced with the working solutions, which contained appropriate test compounds at concentrations of 3 μM, 10 μM, 30 μM, and control medium (0.2% DMSO). Cells were exposed to the test substances for 24 h. The background control comprised wells without cells with only control medium. To determine the maximal LDH release (high control), half of the control cultures were treated with lysis buffer. Wells with untreated cells were used as the low control of the assay. LDH activity in media was assessed according to the manufacturer’s protocol. The absorbance was measured at wavelengths of 490 nm and 690 nm (background), and the percentage of released enzyme was calculated for cells growing in the presence of compounds according to the formula:Cytotoxicity [%] = [(AT − AL)/(AH − AL)] × 100 where AT is the absorbance of treated wells; AL is low control; and AH is high control (maximal LDH release).
Cytotoxicity was expressed as a percentage of the released LDH calculated according to the difference between the absorbance of the treated and low control wells divided by the difference between the absorbance of the high control and low control wells.

C32 cell line = system: C32 cell line; parameters: method as in PMID 33572631; settings: cited from earlier work

C#CC(=O)OC[C@]12CC[C@@H](/C(C)=C/P(=O)(OCC)OCC)C1C1CCC3[C@@]4(C)CC[C@H](O)C(C)(C)C4CC[C@@]3(C)[C@]1(C)CC2 (stereo partly drawn) [Compound 6, E-29-diethoxyphosphoryl-28-O-propynoylbetulin]
effect of CsA on compound-induced cell death, plasma membrane permeability (SK-OV-3 cells [1]): almost completely prevented | cytotoxicity (released LDH) (SK-OV-3 cells [2]): most cytotoxic agent | IC50 (C32 cell line): 600 nM

— article PMC10671498, “Antiproliferative and Cytotoxic Properties of Propynoyl Betulin Derivatives against Human Ovarian Cancer Cells: In Vitro Studies” (International Journal of Molecular Sciences, 2023)
